Reference: US8853246B2 (Dow AgroSciences LLC, priority 2009, dated 2014)

What was measured:
[1] = test system: Green Peach Aphid (Myzus Persicae); assay: Insecticidal test for green peach aphid in foliar spray assay (col. MYZUPE); type: in vivo; details: green peach aphid; for pest or weed control at 200 ppm: Myzus persicae, 72 h, read-out: MYZUPE 200 ppm (Corrected % Control, rating)
Outline: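 Corrected % control derives from microscope counts of live aphids per plant, treated against diluent-only checks, 3 days after foliar spraying at ~25 °C and 40% RH. Test solution was 200 ppm in 0.025% aqueous Tween 20, applied to both leaf sides of infested cabbage seedlings, four pots each.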

[2] = test system: Sweetpotato Whitefly-Crawler (Bemisia Tabaci); assay: Insecticidal test for sweetpotato whitefly-crawler in foliar spray assay (col. BEMITA); type: in vivo; details: sweetpotato whitefly-crawler; for pest or weed control at 200 ppm: Bemisia tabaci, read-out: BEMITA 200 ppm (Corrected % Control, rating)
Outline: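 Percent control, Abbott-corrected against diluent-sprayed plants, from microscope counts of live nymphs 8-9 days after treatment. Test solution at 200 ppm in 0.025% aqueous Tween 20 applied to both leaf sides of egg-infested cotton after a 5-6 day hatch period (82° F, 50% RH).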

CCSCCC(=O)N(CC)c1sc(-c2cccnc2)nc1C [Compound 322]
pest or weed control at 200 ppm [1]: 80 to 100%
pest or weed control at 200 ppm [2]: < 80%

CCN(C(=O)CCSC(C)C)c1sc(-c2cccnc2)nc1C [Compound 323]
pest or weed control at 200 ppm [1]: 80 to 100%
pest or weed control at 200 ppm [2]: < 80%

CCN(C(=O)CC(C)SC)c1sc(-c2cccnc2)nc1Cl (stereo not shown) [Compound 324]
pest or weed control at 200 ppm [1]: 80 to 100%
pest or weed control at 200 ppm [2]: < 80%

Cc1nc(-c2cccnc2)sc1NC(=O)C1=CC(=O)CC(C)(C)O1 [Compound 326]
pest or weed control at 200 ppm [1]: < 80%
pest or weed control at 200 ppm [2]: < 80%

Cc1nc(-c2cccnc2)sc1N(C)C(=O)C1=CC(=O)CC(C)(C)O1 [Compound 327]
pest or weed control at 200 ppm [1]: < 80%
pest or weed control at 200 ppm [2]: < 80%

CN(C(=O)C1=CC(=O)CC(C)(C)O1)c1sc(-c2cccnc2)nc1Cl [Compound 328]
pest or weed control at 200 ppm [1]: < 80%
pest or weed control at 200 ppm [2]: < 80%

CSCC(Cc1ccccc1)C(=O)Nc1sc(-c2cccnc2)nc1C (stereo not shown) [Compound 329]
pest or weed control at 200 ppm [1]: < 80%
pest or weed control at 200 ppm [2]: < 80%

CSCC(Cc1ccccc1)C(=O)N(C)c1sc(-c2cccnc2)nc1C (stereo not shown) [Compound 330]
pest or weed control at 200 ppm [1]: < 80%
pest or weed control at 200 ppm [2]: < 80%

CSCC(Cc1ccccc1)C(=O)N(C)c1sc(-c2cccnc2)nc1Cl (stereo not shown) [Compound 331]
pest or weed control at 200 ppm [1]: < 80%
pest or weed control at 200 ppm [2]: 80 to 100%

Cc1nc(C)n(CC(C)C(=O)Nc2sc(-c3cccnc3)nc2C)n1 (stereo not shown) [Compound 332]
pest or weed control at 200 ppm [1]: 80 to 100%
pest or weed control at 200 ppm [2]: < 80%

Cc1nc(C)n(CC(C)C(=O)N(C)c2sc(-c3cccnc3)nc2Cl)n1 (stereo not shown) [Compound 333]
MYZUPE 200 ppm (Corrected % Control, rating) [1]: A (80-100)
BEMITA 200 ppm (Corrected % Control, rating) [2]: B (Less than 80)

CC(=O)OC(C)C(=O)Nc1sc(-c2cccnc2)nc1C (stereo not shown) [Compound 334]
pest or weed control at 200 ppm [1]: 80 to 100%
pest or weed control at 200 ppm [2]: < 80%

CC(=O)OC(C)C(=O)N(C)c1sc(-c2cccnc2)nc1C (stereo not shown) [Compound 335]
MYZUPE 200 ppm (Corrected % Control, rating) [1]: A (80-100)
BEMITA 200 ppm (Corrected % Control, rating) [2]: A (80-100)

CC(=O)OC(C)C(=O)N(C)c1sc(-c2cccnc2)nc1Cl (stereo not shown) [Compound 336]
MYZUPE 200 ppm (Corrected % Control, rating) [1]: A (80-100)
BEMITA 200 ppm (Corrected % Control, rating) [2]: A (80-100)

Cc1nc(-c2cccnc2)sc1NC(=O)C1CCN1C(=O)OC(C)(C)C (stereo not shown) [Compound 337]
pest or weed control at 200 ppm [1]: < 80%
pest or weed control at 200 ppm [2]: 80 to 100%

CN(C(=O)C1CCN1C(=O)OC(C)(C)C)c1sc(-c2cccnc2)nc1Cl (stereo not shown) [Compound 339]
MYZUPE 200 ppm (Corrected % Control, rating) [1]: B (Less than 80)
BEMITA 200 ppm (Corrected % Control, rating) [2]: A (80-100)

Cc1nc(-c2cccnc2)sc1NC(=O)c1cscn1 [Compound 340]
pest or weed control at 200 ppm [1]: 80 to 100%
pest or weed control at 200 ppm [2]: < 80%

CN(C(=O)c1cscn1)c1sc(-c2cccnc2)nc1Cl [Compound 341]
MYZUPE 200 ppm (Corrected % Control, rating) [1]: B (Less than 80)
BEMITA 200 ppm (Corrected % Control, rating) [2]: B (Less than 80)

Cc1nc(-c2cccnc2)sc1NC(=O)c1cnco1 [Compound 342]
pest or weed control at 200 ppm [1]: < 80%
pest or weed control at 200 ppm [2]: < 80%

Cc1nc(-c2cccnc2)sc1N(C)C(=O)c1cnco1 [Compound 343]
MYZUPE 200 ppm (Corrected % Control, rating) [1]: A (80-100)
BEMITA 200 ppm (Corrected % Control, rating) [2]: B (Less than 80)

Cc1nc(-c2cccnc2)sc1NC(=O)c1ccns1 [Compound 344]
pest or weed control at 200 ppm [1]: < 80%
pest or weed control at 200 ppm [2]: < 80%

Cc1nc(-c2cccnc2)sc1N(C)C(=O)c1ccns1 [Compound 345]
MYZUPE 200 ppm (Corrected % Control, rating) [1]: A (80-100)
BEMITA 200 ppm (Corrected % Control, rating) [2]: A (80-100)

CN(C(=O)c1ccns1)c1sc(-c2cccnc2)nc1Cl [Compound 346]
MYZUPE 200 ppm (Corrected % Control, rating) [1]: B (Less than 80)
BEMITA 200 ppm (Corrected % Control, rating) [2]: A (80-100)

CC(=O)c1ccc(C(=O)Nc2sc(-c3cccnc3)nc2C)s1 [Compound 347]
pest or weed control at 200 ppm [1]: < 80%
pest or weed control at 200 ppm [2]: < 80%

CCN(C(=O)C(C)C[S+](C)[O-])c1sc(-c2cccnc2)nc1Cl (stereo not shown) [Compound 348]
pest or weed control at 200 ppm [1]: 80 to 100%
pest or weed control at 200 ppm [2]: 80 to 100%

CC(=O)c1ccc(C(=O)N(C)c2sc(-c3cccnc3)nc2C)s1 [Compound 350]
pest or weed control at 200 ppm [1]: < 80%
pest or weed control at 200 ppm [2]: < 80%

CC(=O)c1ccc(C(=O)N(C)c2sc(-c3cccnc3)nc2Cl)s1 [Compound 351]
pest or weed control at 200 ppm [1]: < 80%
pest or weed control at 200 ppm [2]: < 80%

CC(C)(C)OC(=O)Nc1sc(-c2cncc(F)c2)nc1F [Compound 353, [4-fluoro-2-(5-fluoro-pyridin-3-yl)-thiazol-5-yl]-carbamic acid tert-butyl ester]
pest or weed control at 200 ppm [1]: < 80%
pest or weed control at 200 ppm [2]: 80 to 100%

CSCC(C)C(=O)N(C)c1sc(-c2cncc(F)c2)nc1Br (stereo not shown) [Compound 354]
pest or weed control at 200 ppm [1]: 80 to 100%
pest or weed control at 200 ppm [2]: 80 to 100%
